Values of other authors as cited in US8273874B2, “Method of dynamic nuclear polarisation (DNP) and compounds and compositions for use in the method” (GE Healthcare AS, priority 2006, dated 2012).

Details: human full blood at 37° C.

T1 relaxation: about 42 s
SMILES: CC(=O)[13C](=O)O [^13C1-pyruvate]
